Where two headings read alike, the source gives them in different places.
Target: T1, mouse TMEM16A mutant R515A (Mus musculus, UniProt Q8BHY3, R515A)
T1 construct: expressed in transfected cells; host or cells: HEK293T
T1 sequence (Q8BHY3 1-960 R515A): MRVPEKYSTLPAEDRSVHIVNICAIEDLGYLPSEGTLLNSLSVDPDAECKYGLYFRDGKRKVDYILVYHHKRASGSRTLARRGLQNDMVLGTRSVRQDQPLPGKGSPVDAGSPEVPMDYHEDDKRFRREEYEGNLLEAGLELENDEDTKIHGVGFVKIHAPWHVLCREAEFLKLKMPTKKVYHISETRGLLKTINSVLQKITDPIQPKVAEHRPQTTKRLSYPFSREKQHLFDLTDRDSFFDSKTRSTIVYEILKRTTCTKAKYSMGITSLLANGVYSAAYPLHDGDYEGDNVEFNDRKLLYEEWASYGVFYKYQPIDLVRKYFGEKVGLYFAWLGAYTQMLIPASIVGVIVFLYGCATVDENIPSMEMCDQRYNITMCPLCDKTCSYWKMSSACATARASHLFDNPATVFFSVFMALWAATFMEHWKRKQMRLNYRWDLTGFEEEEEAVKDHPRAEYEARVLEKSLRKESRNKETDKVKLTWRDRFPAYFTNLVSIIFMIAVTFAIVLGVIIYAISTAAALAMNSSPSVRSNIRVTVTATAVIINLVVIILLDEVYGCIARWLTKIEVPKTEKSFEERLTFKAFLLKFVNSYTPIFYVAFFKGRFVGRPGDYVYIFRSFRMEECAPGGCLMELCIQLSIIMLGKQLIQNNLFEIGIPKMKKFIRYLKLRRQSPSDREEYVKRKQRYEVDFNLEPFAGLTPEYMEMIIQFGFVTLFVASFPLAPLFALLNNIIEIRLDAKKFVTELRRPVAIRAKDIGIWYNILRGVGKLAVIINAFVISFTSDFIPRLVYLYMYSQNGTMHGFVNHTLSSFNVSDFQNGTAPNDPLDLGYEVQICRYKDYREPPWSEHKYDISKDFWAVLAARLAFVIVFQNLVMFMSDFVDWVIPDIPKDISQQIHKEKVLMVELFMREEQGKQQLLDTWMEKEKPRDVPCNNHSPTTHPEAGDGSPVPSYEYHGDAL
Experiment: Inside-out patch recording of 1PBC block, mutant R515A
Assay type: cell-based
Method: HEK293T cells (ATCC CRL-1573) were maintained in Dulbecco’s modified Eagle’s medium (DMEM; Sigma-Aldrich) supplemented with 10 U ml^−1 penicillin, 0.1 mg ml^−1 streptomycin (Sigma-Aldrich), 2 mM L-glutamine (Sigma-Aldrich), and 10% FBS (Sigma-Aldrich) in a humidified atmosphere containing 5% CO2 at 37 °C. HEK293S GnTI^− cells (ATCC CRL-3022) were maintained in HyClone HyCell TransFx-H medium (GE Healthcare) supplemented with 10 U ml^−1 penicillin, 0.1 mg ml^−1 streptomycin, 4 mM L-glutamine, 0.15% poloxamer 188 (Sigma-Aldrich), and 1% FBS in an atmosphere containing 5% CO2 at 185 rpm at 37 °C. The ac splice variant of mouse TMEM16A (UniProt ID: Q8BHY3), mouse TMEM16B (UniProt ID: Q8CFW1), or mouse TMEM16F (UniProt ID: Q6P9J9) bearing a 3C cleavage site, a Venus YFP, a Myc tag, and a Streptavidin-binding peptide (SBP) downstream of the open reading frame in a modified pcDNA3.1 vector (Invitrogen) were used as described previously[21],[31]. Mutations were introduced using a modified QuikChange method[58] and were verified by sequencing.
HEK293T cells were transfected with 3–4 μg DNA per 6 cm Petri dish using the calcium phosphate co-precipitation method and were used within 24–96 h after transfection. Recordings were performed on inside-out patches excised from HEK293T cells expressing the construct of interest. Patch pipettes were pulled from borosilicate glass capillaries (O.D. 1.5 mm, I.D. 0.86 mm, Sutter Instrument) and were fire-polished with a microforge (Narishige) before use. Pipette resistance was typically 3–8 MΩ when filled with the recording solutions detailed below. Seal resistance was typically 4 GΩ or higher. Voltage-clamp recordings were made using Axopatch 200B, Digidata 1550, and Clampex 10.7 (Molecular Devices). Analog signals were filtered with the in-built 4-pole Bessel filter at 10 kHz and were digitized at 20 kHz. Solution exchange was achieved using a gravity-fed system through a theta glass pipette mounted on an ultra-fast piezo-driven stepper (Siskiyou). […] All recordings were performed at 20 °C.
A symmetrical ionic condition was used throughout. Stock solution with Ca^2+-EGTA contained 150 mM NaCl, 5.99 mM Ca(OH)2, 5 mM EGTA, and 10 mM HEPES at pH 7.40. Stock solution with EGTA contained 150 mM NaCl, 5 mM EGTA, and 10 mM HEPES at pH 7.40. Free Ca^2+ concentrations were adjusted by mixing the stock solutions at the required ratios calculated using the WEBMAXC program (http://web.stanford.edu/~cpatton/webmaxcS.htm). Patch pipettes were filled with the stock solution with Ca^2+-EGTA, which has a free Ca^2+ concentration of 1 mM. 1PBC (ChemBridge) stock was reconstituted in anhydrous DMSO (Sigma-Aldrich) at 100 mM and stored at −20 °C. Working solutions with 1PBC were prepared by serial dilution. Unless otherwise stated, experiments were performed at a saturating Ca^2+ concentration as shown in Supplementary Table 1 and the primary data were corrected for current rundown as described previously[21],[25].
Concentration-response relations, obtained from the ratio of the I-V plots before and after the application of the blocker, were fitted to the Hill equation,1 I/Imax=1/1+IC50/[blocker]^h where I/Imax is the normalized current responses, IC50 defines the concentration at which inhibition is at its half-maximum, and h is the Hill coefficient.

IC50 (0 mV, 4 µM Ca2+): 120 µM
remaining activity at 10 µM (10 µM 1PBC, +80 mV, saturating Ca2+ (4 µM), read-out: I/Imax): 91.2%
remaining activity at 10 µM (10 µM 1PBC, -80 mV, saturating Ca2+ (4 µM), read-out: I/Imax): 93.3%
remaining activity at 30 µM (30 µM 1PBC, +80 mV, saturating Ca2+ (4 µM), read-out: I/Imax): 74.8%
remaining activity at 30 µM (30 µM 1PBC, -80 mV, saturating Ca2+ (4 µM), read-out: I/Imax): 86.5%
remaining activity at 100 µM (100 µM 1PBC, +80 mV, saturating Ca2+ (4 µM), read-out: I/Imax): 47.7%
remaining activity at 100 µM (100 µM 1PBC, -80 mV, saturating Ca2+ (4 µM), read-out: I/Imax): 61.6%
remaining activity at 10 µM (1PBC 10, 0 mV, read-out: fraction of unblocked current): 92.5%
remaining activity at 10 µM (1PBC 10, 20 mV, read-out: fraction of unblocked current): 92.3%
remaining activity at 10 µM (1PBC 10, 40 mV, read-out: fraction of unblocked current): 92.8%
remaining activity at 10 µM (1PBC 10, 60 mV, read-out: fraction of unblocked current): 91.6%
remaining activity at 10 µM (1PBC 10, 80 mV, read-out: fraction of unblocked current): 91.2%
remaining activity at 10 µM (1PBC 10, 100 mV, read-out: fraction of unblocked current): 93.9%
remaining activity at 10 µM (1PBC 10, 120 mV, read-out: fraction of unblocked current): 90.5%
remaining activity at 10 µM (1PBC 10, 140 mV, read-out: fraction of unblocked current): 93.5%
remaining activity at 10 µM (1PBC 10, -20 mV, read-out: fraction of unblocked current): 92.7%
remaining activity at 10 µM (1PBC 10, -40 mV, read-out: fraction of unblocked current): 91.8%
remaining activity at 10 µM (1PBC 10, -60 mV, read-out: fraction of unblocked current): 91.4%
remaining activity at 10 µM (1PBC 10, -80 mV, read-out: fraction of unblocked current): 93.3%
remaining activity at 10 µM (1PBC 10, -100 mV, read-out: fraction of unblocked current): 92.8%
remaining activity at 10 µM (1PBC 10, -120 mV, read-out: fraction of unblocked current): 91.8%
remaining activity at 10 µM (1PBC 10, -140 mV, read-out: fraction of unblocked current): 93.3%
remaining activity at 30 µM (1PBC 30, 0 mV, read-out: fraction of unblocked current): 79.3%
remaining activity at 30 µM (1PBC 30, 20 mV, read-out: fraction of unblocked current): 77.3%
remaining activity at 30 µM (1PBC 30, 40 mV, read-out: fraction of unblocked current): 75.6%
remaining activity at 30 µM (1PBC 30, 60 mV, read-out: fraction of unblocked current): 73.2%
remaining activity at 30 µM (1PBC 30, 80 mV, read-out: fraction of unblocked current): 74.8%
remaining activity at 30 µM (1PBC 30, 100 mV, read-out: fraction of unblocked current): 73.1%
remaining activity at 30 µM (1PBC 30, 120 mV, read-out: fraction of unblocked current): 70.9%
remaining activity at 30 µM (1PBC 30, 140 mV, read-out: fraction of unblocked current): 70%
remaining activity at 30 µM (1PBC 30, -20 mV, read-out: fraction of unblocked current): 81.4%
remaining activity at 30 µM (1PBC 30, -40 mV, read-out: fraction of unblocked current): 84%
remaining activity at 30 µM (1PBC 30, -60 mV, read-out: fraction of unblocked current): 84.5%
remaining activity at 30 µM (1PBC 30, -80 mV, read-out: fraction of unblocked current): 86.5%
remaining activity at 30 µM (1PBC 30, -100 mV, read-out: fraction of unblocked current): 87.5%
remaining activity at 30 µM (1PBC 30, -120 mV, read-out: fraction of unblocked current): 86.9%
remaining activity at 30 µM (1PBC 30, -140 mV, read-out: fraction of unblocked current): 85.6%
remaining activity at 100 µM (1PBC 100, 0 mV, read-out: fraction of unblocked current): 55%
remaining activity at 100 µM (1PBC 100, 20 mV, read-out: fraction of unblocked current): 53.1%
remaining activity at 100 µM (1PBC 100, 40 mV, read-out: fraction of unblocked current): 51%
remaining activity at 100 µM (1PBC 100, 60 mV, read-out: fraction of unblocked current): 49.1%
remaining activity at 100 µM (1PBC 100, 80 mV, read-out: fraction of unblocked current): 47.7%
remaining activity at 100 µM (1PBC 100, 100 mV, read-out: fraction of unblocked current): 46.8%
remaining activity at 100 µM (1PBC 100, 120 mV, read-out: fraction of unblocked current): 47.6%
remaining activity at 100 µM (1PBC 100, 140 mV, read-out: fraction of unblocked current): 48%
remaining activity at 100 µM (1PBC 100, -20 mV, read-out: fraction of unblocked current): 56.9%
remaining activity at 100 µM (1PBC 100, -40 mV, read-out: fraction of unblocked current): 59%
remaining activity at 100 µM (1PBC 100, -60 mV, read-out: fraction of unblocked current): 60.7%
remaining activity at 100 µM (1PBC 100, -80 mV, read-out: fraction of unblocked current): 61.6%
remaining activity at 100 µM (1PBC 100, -100 mV, read-out: fraction of unblocked current): 61.8%
remaining activity at 100 µM (1PBC 100, -120 mV, read-out: fraction of unblocked current): 62.9%
remaining activity at 100 µM (1PBC 100, -140 mV, read-out: fraction of unblocked current): 62.4%
IC50 (20 mV, 4 µM Ca2+): 110 µM
IC50 (40 mV, 4 µM Ca2+): 102 µM
IC50 (60 mV, 4 µM Ca2+): 92.1 µM
log-fold IC50 (change of mutant vs WT) (80 mV): 1.6299
IC50 (80 mV, 4 µM Ca2+): 91.4 µM
IC50 (100 mV, 4 µM Ca2+): 88.7 µM
IC50 (120 mV, 4 µM Ca2+): 84.4 µM
IC50 (140 mV, 4 µM Ca2+): 86.1 µM
IC50 (-20 mV, 4 µM Ca2+): 131 µM
IC50 (-40 mV, 4 µM Ca2+): 145 µM
IC50 (-60 mV, 4 µM Ca2+): 153 µM
IC50 (-80 mV, 4 µM Ca2+): 166 µM
IC50 (-100 mV, 4 µM Ca2+): 169 µM
IC50 (-120 mV, 4 µM Ca2+): 172 µM
IC50 (-140 mV, 4 µM Ca2+): 168 µM
IC50 (R515A, V 0 mV): 120 µM
IC50 (R515A, V 20 mV): 110 µM
IC50 (R515A, V 40 mV): 102 µM
IC50 (R515A, V 60 mV): 92.1 µM
IC50 (R515A, V 80 mV): 91.4 µM
IC50 (R515A, V 100 mV): 88.7 µM
IC50 (R515A, V 120 mV): 84.4 µM
IC50 (R515A, V 140 mV): 86.1 µM
IC50 (R515A, V -20 mV): 131 µM
IC50 (R515A, V -40 mV): 145 µM
IC50 (R515A, V -60 mV): 153 µM
IC50 (R515A, V -80 mV): 166 µM
IC50 (R515A, V -100 mV): 169 µM
IC50 (R515A, V -120 mV): 172 µM
IC50 (R515A, V -140 mV): 168 µM
SMILES: N#Cc1c(C(F)(F)F)cc(O)n2c1nc1ccccc12 [1PBC]
